Common to all, as to format: biochemical
One test addresses PKC isoform β-II (Homo sapiens, UniProt P05771). Put plainly: Protein Kinase C histone-based assay, PKC β-II. The following applies: histone III substrate, 30 μM ATP; error approximately within ±30 percent; read-out: PKC Activity, Beta II (IC50, Histone Based Assay). Here is the method: (§1) Compounds were evaluated for PKC selectivity using histone III as the substrate. The PKC isoforms α, β-II or γ were added to a reaction mixture that contained 20 mM HEPES, (pH 7.4), 940 μM CaCl2, 10 mM MgCl2, 1 mM EGTA. 100 μg/mL phosphatidylserine, 20 μg/mL diacylglycerol, 30 μM ATP, 1 μCi (^33P)ATP and 200 μg/mL histone III. The reaction was incubated for 10 min at 30° C. Reactions were terminated by TCA precipitation and spotting on Whatman P81 filters. Filters were washed in 75 mM phosphoric acid and the radioactivity quantified by liquid scintillation counting.

The target in the next test is PKC isoform α (Homo sapiens, UniProt P17252). As to the kind of experiment: Protein Kinase C histone-based assay, PKC α. The following applies: histone III substrate, 30 μM ATP; error approximately within ±30 percent; read-out: PKC Activity, Alpha (IC50, Histone Based Assay). Here is the method: as §1
For the next test, the target named is PKC isoform γ (Homo sapiens, UniProt P05129). Put plainly: Protein Kinase C histone-based assay, PKC γ. The following applies: histone III substrate, 30 μM ATP; error approximately within ±30 percent; read-out: PKC Activity, Gamma (IC50, Histone Based Assay). Here is the method:
as §1

The target of test [1] is T1, recombinant rabbit GSK-3β (Oryctolagus cuniculus, UniProt G1T8E2).
T1 construct: purchased New England Biolabs
Put plainly: Glycogen Synthase Kinase-3 assay (PPI-2 phosphorylation). The following applies: for pIC50: PPI-2 substrate, 33P-ATP, 90 minutes at 30° C. As to the method: Compounds were tested for the ability to inhibit recombinant rabbit GSK-3β using the following protocol. The test compound was added to a reaction mixture containing Protein phosphatase inhibitor-2 (PPI-2) (Calbiochem) (45 ng), rabbit GSK-3β (New England Biolabs) (0.75 units) and ^33P-ATP (1 μCi) in 50 mM Tris-HCl (pH 8.0), 10 mM MgCl2, 0.1% BSA, 1 mM DTT and 100 μM Sodium Vanadate. The mixture was reacted for 90 minutes at 30° C. to allow phosphorylation of the PPI-2 protein and then the protein in the reaction was precipitated using 10% TCA. The precipitated protein was collected on filter plates (MultiScreen-DV/Millipore), which were subsequently washed. Finally, the radioactivity was quantified using a TopCount Scintillation Counter (Packard). […] Staurosporine or Valproate, known inhibitors of GSK-3β, were used as a positive control for screening.

Molecules are shown by their SMILES. pIC50: −log10 of the molar value.

The results in this text go back to patent US6987110B2, “Substituted pyrrolines as kinase inhibitors” (Janssen Pharmaceutica N.V., priority 2002, dated 2006).

As usually defined, the pIC50 is the negative decadic logarithm of the IC50, by convention in mol/L.

PKC isoform β-II, sequence (P05771 1-673 isoform P05771-2): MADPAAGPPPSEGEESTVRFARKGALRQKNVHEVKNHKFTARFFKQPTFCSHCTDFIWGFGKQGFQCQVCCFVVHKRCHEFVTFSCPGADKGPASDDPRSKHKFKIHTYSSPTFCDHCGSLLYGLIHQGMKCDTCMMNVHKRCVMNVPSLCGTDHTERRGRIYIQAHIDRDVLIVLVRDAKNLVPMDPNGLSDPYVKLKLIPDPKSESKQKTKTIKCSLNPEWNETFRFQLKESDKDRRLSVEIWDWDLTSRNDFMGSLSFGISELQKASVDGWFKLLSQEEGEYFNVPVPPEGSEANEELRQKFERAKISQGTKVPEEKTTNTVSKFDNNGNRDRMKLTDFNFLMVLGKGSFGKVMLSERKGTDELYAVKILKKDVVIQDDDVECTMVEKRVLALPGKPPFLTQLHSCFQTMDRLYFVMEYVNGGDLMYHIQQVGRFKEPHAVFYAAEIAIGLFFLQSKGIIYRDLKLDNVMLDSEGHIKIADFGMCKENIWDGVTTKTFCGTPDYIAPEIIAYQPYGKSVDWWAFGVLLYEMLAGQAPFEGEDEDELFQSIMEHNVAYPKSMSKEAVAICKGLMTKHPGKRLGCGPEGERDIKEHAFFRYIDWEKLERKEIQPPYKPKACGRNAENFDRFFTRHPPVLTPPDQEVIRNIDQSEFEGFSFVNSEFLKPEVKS
T1 sequence (G1T8E2 1-432): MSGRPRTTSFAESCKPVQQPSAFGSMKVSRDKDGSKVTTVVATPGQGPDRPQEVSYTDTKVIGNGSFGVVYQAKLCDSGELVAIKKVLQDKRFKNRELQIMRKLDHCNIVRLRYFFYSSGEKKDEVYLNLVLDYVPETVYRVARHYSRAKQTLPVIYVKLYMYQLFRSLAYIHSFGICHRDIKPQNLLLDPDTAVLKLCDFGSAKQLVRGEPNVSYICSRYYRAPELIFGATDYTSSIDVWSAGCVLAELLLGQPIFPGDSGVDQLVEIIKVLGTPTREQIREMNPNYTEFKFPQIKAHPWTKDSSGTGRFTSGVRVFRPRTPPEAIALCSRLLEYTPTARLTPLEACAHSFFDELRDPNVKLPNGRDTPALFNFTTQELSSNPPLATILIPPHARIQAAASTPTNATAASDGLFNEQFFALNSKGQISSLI

Turning to `O=C1NC(=O)C(c2cn(-c3cccnc3)c3ccccc23)=C1c1cn(CCO)c2ccccc12` [Compound 1, 3-[1-(2-hydroxyethyl)-1H-indol-3-yl]-4-[1-(3-pyridinyl)-1H-indol-3-yl]-1H-pyrrole-2,5-dione], the negative logarithm of the IC50 (pIC50) on PKC isoform β-II is 8.22; on PKC isoform α, 7.19; at PKC isoform γ, 6.56; in test [1], 7.60.

`O=C1NC(=O)C(c2cn(-c3cccnc3)c3ccccc23)=C1c1cn(CCn2ncnn2)c2ccccc12` [Compound 9, 3-[1-(3-pyridinyl)-1H-indol-3-yl]-4-[1-[2-(2H-tetrazol-2-yl)ethyl]-1H-indol-3-yl]-1H-pyrrole-2,5-dione]: the pIC50 is 7.27 on PKC isoform β-II, 6.04 at PKC isoform α, 5.31 on PKC isoform γ and 8.15 in test [1].

On to `O=C1NC(=O)C(c2cn(-c3cnc4ccccc4c3)c3ccccc23)=C1c1cn(CCO)c2ccccc12` [Compound 3, 3-[1-(2-hydroxyethyl)-1H-indol-3-yl]-4-[1-(3-quinolinyl)-1H-indol-3-yl]-1H-pyrrole-2,5-dione], for which the pIC50 at PKC isoform β-II is 7.64; at PKC isoform α, 6.34; on PKC isoform γ, 6.11; in test [1], 7.51.

On to `O=C1NC(=O)C(c2cn(-c3cncnc3)c3ccccc23)=C1c1cn(-c2cccnc2)c2ccccc12` [Compound 11, 3-[1-(3-pyridinyl)-1H-indol-3-yl]-4-[1-(5-pyrimidinyl)-1H-indol-3-yl]-1H-pyrrole-2,5-dione], for which the pIC50 at PKC isoform β-II was 7.22; on PKC isoform α, 5.52; on PKC isoform γ it was 5.84; in test [1] it was 6.94.

For the compound `Cn1cc(C2=C(c3cn(-c4cncnc4)c4ccccc34)C(=O)NC2=O)c2ccccc21` [Compound 7, 3-(1-methyl-1H-indol-3-yl)-4-[1-(5-pyrimidinyl)-1H-indol-3-yl]-1H-pyrrole-2,5-dione], the pIC50 in test [1] was 7.52.

Consider `CN(C)CCCn1cc(C2=C(c3cn(-c4ccccc4)c4ccccc34)C(=O)NC2=O)c2ccccc21` [Compound 6, 3-[1-[3-(dimethylamino)propyl]-1H-indol-3-yl]-4-(1-phenyl-1H-indol-3-yl)-1H-pyrrole-2,5-dione], for which the results for the pIC50 at PKC isoform β-II and on PKC isoform α were 7.64 and 7.24, respectively.

In the case of `O=C1NC(=O)C(c2cn(-c3cccnc3)c3ccccc23)=C1c1cn(CCCO)c2ccccc12` [Compound 4, 3-[1-(3-hydroxypropyl)-1H-indol-3-yl]-4-[1-(3-pyridinyl)-1H-indol-3-yl]-1H-pyrrole-2,5-dione], the pIC50 in test [1] is 7.62.

With `CN(C)CCCn1cc(C2=C(c3cn(-c4csc5ccccc45)c4ccccc34)C(=O)NC2=O)c2ccccc21` [Compound 5, 3-(1-benzo[b]thien-3-yl-1H-indol-3-yl)-4-[1-[3-(dimethylamino)propyl]-1H-indol-3-yl]-1H-pyrrole-2,5-dione], the “GSK-3β Assay Activity, percent at a single concentration” value in test [1] (@ 1 μM) is 53% @ 1 μM.

For `O=C1NC(=O)C(c2cn(-c3cncnc3)c3ccccc23)=C1c1cn(CCO)c2ccccc12` [Compound 2, 3-[1-(2-hydroxyethyl)-1H-indol-3-yl]-4-[1-(5-pyrimidinyl)-1H-indol-3-yl]-1H-pyrrole-2,5-dione], the negative-log IC50 (pIC50) is 7.82 on PKC isoform β-II, 6.64 on PKC isoform α, 6.37 on PKC isoform γ and 8.10 in test [1].

For `O=C1NC(=O)C(c2cn(-c3cccnc3)c3ccccc23)=C1c1cn(CCn2cnnn2)c2ccccc12` [Compound 10, 3-[1-(3-pyridinyl)-1H-indol-3-yl]-4-[1-[2-(1H-tetrazol-1-yl)ethyl]-1H-indol-3-yl]-1H-pyrrole-2,5-dione], the pIC50 at PKC isoform β-II was 6.91; at PKC isoform α it was 6.00; at PKC isoform γ, 5.34; in test [1], 7.77.

Consider `Cn1cc(C2=C(c3cn(-c4cccnc4)c4ccccc34)C(=O)NC2=O)c2ccccc21` [Compound 8, 3-(1-methyl-1H-indol-3-yl)-4-[1-(3-pyridinyl)-1H-indol-3-yl]-1H-pyrrole-2,5-dione], for which the pIC50 in test [1] was 7.00.
